Several values for one entry are separate records, joined by “and”; a condition that tells them apart may be missing. Identical values can stand only once. Marks after values point to notes of the source that are not given here.
Assays:
[1] = tested on: Nigrostriatal-lesion-induced Rotational Behavior; test: Nigrostriatal-lesion-induced rotational behavior following amphetamine administration; assay type: in vivo, rats; settings: for % DECREASE ROTATIONS (relative to Vehicle+Amphetamine): nigrostriatal-lesioned rats, 15 min before amphetamine SC
Procedure: Table 3, below, indicates the changes in rotational behavior in nigrostriatal-lesioned rats treated with the compound of the invention and the psychostimulant amphetamine. Drug 1 was administered 15 minutes before amphetamine, and 10 minutes post-amphetamine, the animals were placed into the rotometer for 30 or 60 minutes. “% decrease rotations” indicates the percentage decrease in total rotations relative to the Vehicle+Amphetamine group. ⋄ indicates significant difference (P≦0.05) relative to Vehicle+Amphetamine treated animals. * indicates significant difference (P+0.05) relative to Vehicle+Vehicle treated animals.
Amphetamine-induced rotational behavior. Pre-Apomorphine-screened (rotated) rats (with lesions ≧95% DA cell loss) were purchased from Charles Rivers Laboratories. Animals were given ˜4 days to acclimate prior to testing. All animals weighted 250-300 g at the beginning of the study. Animals were treated with various combinations of vehicle or the compound of the invention and amphetamine.
Vehicle or the compound of the invention was administered (p.o.) 15 minutes before amphetamine (2 mg/kg s.c.). Rotational behavior was assessed 15 minutes post-amphetamine administration and was monitored for 60 minutes using a Rotometer system from San Diego Instruments (San Diego, Calif.).
For i.p. administration, the compounds are formulated in H2O with 0.5% DMSO and given in a volume of 1 ml/kg body weight by injecting into the intraperitoneal cavity. For p.o. administration, the compounds are formulated in H2O with 0.5% DMSO and given in a volume of 2 ml/kg body weight using a 25-gauge, 1.5 inch gavage needle that is slowly inserted through the esophagus into the stomach.

[2] = tested on: Amphetamine-induced Hyperlocomotion; test: Amphetamine-induced hyperlocomotion in the open field; assay type: in vivo, mice; settings: for % DECREASE ACTIVITY REL TO VEH + AMPH / TOTAL ACTIVITY POST-AMPHETAMINE (AUC): mice, 15 min before amphetamine SC
Procedure: Drug 1 was administered 30 minutes after the animal was placed in the open field. Drug 2 was administered subcutaneously (SC) at 45 minutes after the animal was placed in the open field (15 minutes after drug 1). AUC indicates the total amount of locomotor activity after administration of drug 2. “% decrease activity” indicates the percentage decrease in total activity relative to the Vehicle+Amphetamine group. ⋄ significant difference (P<0.05) relative to Vehicle+ Amphetamine treated animals. * indicates significant difference (P ≦0.05) relative to Vehicle+Vehicle treated animals. Amphetamine- or cocaine-induced hyperactivity. Mice were placed in an open field apparatus (FlexField, San Diego Instruments, San Diego, Calif.). […] Total activity over each 5 minute bin (21 total bins) was added to establish activity curve over the 105 minute testing. For i.p. administration, the compounds are formulated in H2O with 0.5% DMSO and given in a volume of 1 ml/kg body weight by injecting into the intraperitoneal cavity. For p.o. administration, the compounds are formulated in H2O with 0.5% DMSO and given in a volume of 2 ml/kg body weight using a 25-gauge, 1.5 inch gavage needle that is slowly inserted through the esophagus into the stomach.

[3] = tested on: Cocaine-induced Hyperlocomotion; test: Cocaine-induced hyperlocomotion in the open field; assay type: in vivo, mice; settings: for % DECREASE ACTIVITY (relative to Vehicle+Cocaine) / TOTAL ACTIVITY POST-COCAINE (AUC): mice, 15 min before cocaine SC
Procedure: Drug 1 was administered 30 minutes after the animal was placed in the open field. Drug 2 was administered subcutaneously (SC) at 45 minutes after the animal was placed in the open field (15 minutes after drug 1). AUC indicates the total amount of locomotor activity after administration of drug 2. “% decrease activity” indicates the percentage decrease in total activity relative to the Vehicle+Cocaine group. ⋄ indicates significant difference (P≦0.05) relative to Vehicle+Cocaine treated animals. * indicates significant difference (P≦0.05) relative to Vehicle+Vehicle treated animals. Amphetamine- or cocaine-induced hyperactivity. Mice were placed in an open field apparatus (FlexField, San Diego Instruments, San Diego, Calif.). […] Total activity over each 5 minute bin (21 total bins) was added to establish activity curve over the 105 minute testing. For i.p. administration, the compounds are formulated in H2O with 0.5% DMSO and given in a volume of 1 ml/kg body weight by injecting into the intraperitoneal cavity. For p.o. administration, the compounds are formulated in H2O with 0.5% DMSO and given in a volume of 2 ml/kg body weight using a 25-gauge, 1.5 inch gavage needle that is slowly inserted through the esophagus into the stomach.

[4] = drug 1 at 0.1 mg/kg PO, 0.1 mg/kg

Row | Compound | inhibition of amphetamine-induced rotational behavior (in words) ([1]; nigrostriatal-lesioned animals) | % DECREASE ROTATIONS (relative to Vehicle+Amphetamine) ([1]; drug 1 at 0.03 mg/kg PO) [%^⋄] | % DECREASE ROTATIONS (relative to Vehicle+Amphetamine) ([1]; drug 1 at 0.1 mg/kg PO) [%^⋄] | % DECREASE ROTATIONS (relative to Vehicle+Amphetamine) ([1]; drug 1 at 1 mg/kg PO) [%^⋄*] | inhibition of increased locomotion associated with psychostimulant administration (in words) ([2]; amphetamine-induced hyperactivity) | % DECREASE ACTIVITY REL TO VEH + AMPH ([2]; drug 1 at 0.01 mg/kg PO) [%*] | TOTAL ACTIVITY POST-AMPHETAMINE (AUC) ([2]; drug 1 at 0.01 mg/kg PO) | % DECREASE ACTIVITY REL TO VEH + AMPH ([2]; drug 1 at 0.03 mg/kg PO) [%^⋄] | TOTAL ACTIVITY POST-AMPHETAMINE (AUC) ([2]; drug 1 at 0.03 mg/kg PO) | % DECREASE ACTIVITY REL TO VEH + AMPH [2, 4] | TOTAL ACTIVITY POST-AMPHETAMINE (AUC) [2, 4] | inhibition of increased locomotion associated with psychostimulant administration (in words) ([3]; cocaine-induced hyperactivity) | % DECREASE ACTIVITY (relative to Vehicle+Cocaine) ([3]; drug 1 at 0.01 mg/kg PO) [%^⋄] | TOTAL ACTIVITY POST-COCAINE (AUC) ([3]; drug 1 at 0.01 mg/kg PO) | % DECREASE ACTIVITY (relative to Vehicle+Cocaine) ([3]; drug 1 at 0.03 mg/kg PO) [%*] | TOTAL ACTIVITY POST-COCAINE (AUC) ([3]; drug 1 at 0.03 mg/kg PO) | % DECREASE ACTIVITY (relative to Vehicle+Cocaine) ([3]; drug 1 at 0.1 mg/kg PO) [%^⋄] | TOTAL ACTIVITY POST-COCAINE (AUC) ([3]; drug 1 at 0.1 mg/kg PO) | % DECREASE ACTIVITY REL TO VEH + AMPH ([2]; drug 1 at 0.2 mg/kg IP) [%^⋄*] | TOTAL ACTIVITY POST-AMPHETAMINE (AUC) ([2]; drug 1 at 0.2 mg/kg IP)
1 | Cc1cccc(C(C)c2c[nH]c(=S)[nH]2)c1C (centres unmarked) [Compound of the invention, 4-(1-(2,3-dimethylphenyl)ethyl)-1H-imidazole-2(3H)-thione] | inhibit amphetamine-induced rotational behavior | 68 | 68 | 46 | effectively inhibit increased locomotion | 32 | 9093.3 ± 983.8 | 72 | 3783.3 ± 214.2 | 63%^⋄ and 72%^⋄ | 5036.0 ± 654.2 and 3759.1 ± 685.4 | effectively inhibit increased locomotion | 53 | 4904 ± 1832.1 | 31 | 7260.8 ± 1756.5 | 64 | 3754.3 ± 1281.9 |  | 
2 | O=C(CCCN1CCC(O)(c2ccc(Cl)cc2)CC1)c1ccc(F)cc1 [Haloperidol, reference compound] |  |  |  |  |  |  |  |  |  |  |  |  |  |  |  |  |  |  | 91 | 1123.16 ± 280.11

Source: patent US20100216857A1, “METHOD OF TREATING MOTOR DISORDERS WITH 4-(1-(2,3-DIMETHYLPHENYL)ETHYL)-1H-IMIDAZOLE-2(3H)-THIONE” (priority 2007, published 2010)
